Measurements published in US8106190B2, “2-aminobenzamide derivatives” (Astellas Pharma Inc., priority 2005, dated 2012).
Counter-ions that a name gives are not always drawn.

What was measured:
[1] = tested on: mouse (ddY, male); test: Capsaicin test (capsaicin-induced paw-licking behavior); type: in vivo; settings: oral administration 45 minutes before 1.6 μg capsaicin to planta; 5 minutes observation; vehicle group = 100%
Experimental: Inhibitory action on pain behavior of the compounds as the active ingredients of the pharmaceutical preparations of the present invention was evaluated in accordance with the method described in a reference [Neuropharmacol., 31: 1279-1285 (1992)]. That is, when 1.6 μg of capsaicin is administered to a planta of a mouse (ddY, male, 4 to 5 weeks of age), it induces paw-licking behavior. The pain behavior suppressing action was evaluated by measuring the paw-licking behavior expressing time during 5 minutes after the administration. Each test compound was orally administered 45 minutes before the administration of capsaicin. Evaluation of the test compounds was carried out by calculating each inhibition rate of the test compound administration group when the paw-licking behavior expressing time of the vehicle administration group was regarded as 100%.

[2] = molecular target: T1, human VR1 (Homo sapiens, UniProt Q8NER1); test: Receptor binding assay ([3H]RTX) using membrane of human VR1 stably expressing HEK 293 cell; settings: [3H]RTX binding, VR1/HEK 293 membrane sample, 37° C. 60 minutes; read-out: VR1 receptor binding inhibitory activity, IC50 value
T1 construct: A complete length cDNA coding for human VR1 was obtained; expressed in transfected cells
T1 sequence (Q8NER1 whole entry): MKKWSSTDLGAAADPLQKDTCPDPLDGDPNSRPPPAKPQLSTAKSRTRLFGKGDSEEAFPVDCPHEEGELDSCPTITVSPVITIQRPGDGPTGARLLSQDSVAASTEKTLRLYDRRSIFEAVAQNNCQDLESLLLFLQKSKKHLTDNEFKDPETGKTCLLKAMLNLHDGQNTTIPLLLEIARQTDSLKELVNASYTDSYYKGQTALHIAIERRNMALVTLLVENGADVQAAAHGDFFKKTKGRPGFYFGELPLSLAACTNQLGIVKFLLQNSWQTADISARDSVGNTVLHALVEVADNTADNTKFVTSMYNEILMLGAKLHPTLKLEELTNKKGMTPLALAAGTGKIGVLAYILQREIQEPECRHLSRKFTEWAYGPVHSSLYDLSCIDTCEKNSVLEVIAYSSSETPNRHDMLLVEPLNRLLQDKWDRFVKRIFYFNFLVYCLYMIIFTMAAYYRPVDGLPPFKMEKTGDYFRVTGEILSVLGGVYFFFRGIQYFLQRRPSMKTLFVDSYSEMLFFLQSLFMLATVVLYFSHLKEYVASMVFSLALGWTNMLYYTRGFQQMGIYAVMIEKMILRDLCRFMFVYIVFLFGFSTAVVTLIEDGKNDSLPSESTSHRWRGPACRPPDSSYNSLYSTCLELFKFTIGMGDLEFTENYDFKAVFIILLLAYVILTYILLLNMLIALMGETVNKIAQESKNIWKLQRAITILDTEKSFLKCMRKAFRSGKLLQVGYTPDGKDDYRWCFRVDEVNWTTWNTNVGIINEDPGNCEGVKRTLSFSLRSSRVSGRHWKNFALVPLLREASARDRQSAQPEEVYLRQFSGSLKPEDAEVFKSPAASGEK
Experimental: 1. Receptor Binding Assay Using VR1 Stably Expressing Cell
1) Construction of Human VR1 Stably Expressing Cell
A complete length cDNA coding for human VR1 was obtained by the following method. Firstly, a first strand cDNA was synthesized by carrying out reverse transcription of human brain mRNA using a reverse transcriptase. Next, PCR by Hot Start method was carried out using this first strand cDNA as the template and using Taq DNA polymerase. In the aforementioned PCR, an oligonucleotide consisting of the 424th to 443rd nucleotide sequence of a conventionally known human VR1 cDNA sequence (Genbank AJ277028.1) was used as the sense primer, and an oligonucleotide consisting of a complementary chain sequence of the 3082nd to 3100th nucleotide sequence as the antisense primer, and thermal denaturation was firstly carried out at 98° C. (1 minute) and then a cycle consisting of 98° C. (15 seconds)/63° C. (30 seconds)/72° C. (3 minutes) was repeated 35 times.
Cloning of the thus amplified DNA fragment was carried out using pCR-XL-TOPO vector (TOPO XL PCR Cloning Kit; Invitrogen, USA). The human VR1-cDNA alone was isolated by digesting the resulting plasmid DNA with a restriction enzyme EcoRI and then integrated into pcDNA3.1 (+) plasmid (Invitrogen, USA). In this case, the above genetic engineering operations were carried out by conventionally known methods (Sambrook, J. et al., “Molecular Cloning—A Laboratory Manual”, Cold Spring Harbor Laboratory Press, NY, 2001) and in accordance with the instructions attached to respective reagents.
Next, the resulting pcDNA3.1-VR1 was transferred into HEK 293 cell. By selecting VR1/HEK 293 cells using DMEM medium (Invitrogen, USA) containing 10% FBS, 100 μg/ml streptomycin, 100 U/ml penicillin and 400 μg/ml G 418, a receptor stably expressing cell strain was prepared. The receptor stably expressing cell was sub-cultured in the medium described in the above.
2) Preparation of Membrane Sample
The VR1/HEK 293 cell described in the above was mass-produced in a dish and then, after discarding the medium, scraped out after adding ice-cooled PBS. Centrifugation was carried out at 1000 rpm and at 4° C. for 10 minutes, and the resulting residue was homogenized by adding a homogenization buffer (25 mM Tris-HCl, 220 mM sucrose, pH 7.4) and centrifuged at 2,200 rpm and at 4° C. for 10 minutes. The resulting supernatant was centrifuged at 30,000×g and at 4° C. for 20 minutes and the resulting residue was mixed with 25 mM Tris-HCl, pH 7.4, and centrifuged at 30,000×g and at 4° C. for 20 minutes, and this operation was repeated twice. The resulting residue was suspended in 25 mM Tris-HCl, pH 7.4, and the protein concentration was determined using a protein assay staining solution (Bio-Rad, USA). The thus prepared membrane sample was stored at −80° C.
3) Receptor Binding Assay
This was carried out by modifying the method of [Neurosci., 57: 747-757 (1993)]. As the assay buffer, 25 mM Tris-HCl, 0.025% BSA, pH 7.4 was used. Each test compound, [^3H]RTX 50 μl (about 50,000 dpm; Perkin Elmer Life Science, USA) and the aforementioned membrane sample (protein quantity about 25 μg) were suspended in a microplate to a total volume of 300 μl, incubated at 37° C. for 60 minutes and then incubated on ice for 10 minutes. A 200 μg/50 μl portion of an ice-cooled α1 acid glycoprotein (AGP; Sigma) was added thereto and further incubated for 5 minutes. Completion of the incubation was carried out by rapid filtration of the reaction liquid using a GF/B filter (Perkin Elmer Life Science, USA). After 7 times of washing with ice-cooled 25 mM Tris-HCl buffer (pH 7.4), radioactivity of the filter was measured by a liquid scintillation counter. Regarding the specific binding, a part substituted by 1 μM of RTX among the total binding of [^3H]RTX with the VR1 receptor stably expressing cell membrane fraction was regarded as the specific binding originated from the VR1 receptor. Evaluation of test compounds was carried out in the following manner. […]

[3] = molecular target: T1, human VR1; test: Inhibitory activity on capsaicin-induced electric current, whole cell patch clamp, VR1 receptor-expressed HEK 293 cells; type: cell-based; settings: capsaicin 1 μM, voltage-clamped, read-out: IC50 value, inhibition of capsaicin-induced current response
Experimental: 2. Measurement of Inhibitory Activity on Capsaicin-Induced Electric Current Using VR1 Stably Expressing Cell
The VR1 receptor-expressed HEK 293 cells prepared in the aforementioned Test Example 1 were inoculated onto a poly-D-lysine-coated cover glass to a density of from 1 to 1.5×10^4 cells/cm^2. This was allowed to stand still in a CO2 incubator (37° C., 5% CO2) and used in this test after a lapse of from 3 to 15 hours.
By recording whole cell patch clamp for the VR1 receptor-expressed HEK 293 cells under a voltage-clamped condition, the current response induced by topically applying capsaicin (1 μM) to the vicinity of the cells was measured. Test compounds were dissolved in an extracellular liquid and applied to a chamber by multi-barrel. Composition (mM) of the extracellular solution was set to NaCl 145, CsCl 5, CaCl2 1, MgCl2 1, HEPES 10 and glucose 10 [pH=7.3]. Composition (mM) of the intracellular solution was set to CsCl 120, MgCl2 2, HEPES 10, BAPTA 10, Na2 GTP 0.2, Mg ATP 4 and phosphorcreatine Na2 4 [pH=7.2]. By defining the current response of capsaicin in the absence of test compound as 100% and continuously applying each test compound starting from a lower concentration, inhibition rate at each concentration was measured. The IC50 value was calculated by nonlinear recursion from respective inhibition rate.

[4] = tested on: rat (SD, male); test: Spinal nerve ligation model test (von Frey hair test); type: in vivo; settings: L5/L6 spinal nerve ligated rat, oral administration 60 minutes before evaluation
Experimental: 4. Spinal Nerve Ligation Model Test
Inhibitory action on pain behavior of the compounds as the active ingredients of the pharmaceutical preparations of the present invention was evaluated in accordance with the method described in a reference [Pain, 50: 355-363 (1992)]. Under pentobarbital anesthesia, the lumbar skin and muscle of a rat (SD, male, 5 to 6 weeks of age) were incised and the lumber nerve was exposed by removing the transverse process of lumbar vertebra L 6. The L 5 and L 6 spinal nerves were ligated with a silk thread and then the wound was sutured. The treatment was applied to the left side.
The drug effect evaluation was carried out after 7 to 15 days of the operation. Pain threshold for mechanical stimulus was examined by the von Frey hair (VFH) test.
Individuals having lowered pain threshold were selected in advance by the VFH test on the day before the drug effect evaluation and divided into groups in such a manner that difference in the average threshold value between respective groups becomes small.
The test compounds were orally administered 60 minutes before the drug effect evaluation. […]

| Compound | IC50 [2] [nM] | inhibition rate of paw-licking behavior expressing time [1] [%] | also measured |
| --- | --- | --- | --- |
| CN1C(=O)CCc2ccc(NC(=O)c3ccc(Cl)cc3N[C@H]3CCCC[C@@H]3N3CCCC3)cc21 [Example 54] | – | 34 | – |
| CC1Oc2ccc(NC(=O)c3ccc(C(F)(F)F)cc3NC3CCCCC3)cc2NC1=O (stereo not drawn) [Example 73] | – | 95 | – |
| O=C(Nc1ccc2c(c1)N(CCO)C(=O)CC2)c1ccc(C(F)(F)F)cc1NC1CCCCC1 [Example 105, 2-(cyclohexylamino)-N-[1-(2-hydroxyethyl)-2-oxo-1,2,3,4-tetrahydroquinolin-7-yl]-4-(trifluoromethyl)benzamide] | 4.2 | – | – |
| CN1C(=O)CCc2ccc(NC(=O)c3ccc(Cl)cc3NN3CCCCC3)cc21 [Example 119] | 45 | – | – |
| CN1C(=O)CCc2ccc(NC(=O)c3ccc(C(F)(F)F)cc3NC3(CN4CCCC4)CCCCC3)cc21 [Example 173] | 5.6 | – | – |
| CN1C(=O)CCc2ccc(NC(=O)c3ccc(C(F)(F)F)cc3N[C@@H]3CCCC[C@H]3OCc3ccccc3)cc21 [Example 176] | 8.9 | – | – |
| CN1C(=O)CCc2ccc(NC(=O)c3ccc(C(F)(F)F)cc3Nc3cccnc3)cc21 [Example 178] | 62 | – | – |
| CC1(C)C(=O)Nc2cc(NC(=O)c3ccc(C(F)(F)F)cc3N[C@H]3CCCC[C@@H]3N3CCCC3)ccc21 [Example 248] | 31 | – | – |
| Cc1nc2cc(NC(=O)c3ccc(C(F)(F)F)cc3NCc3ccncc3)ccc2s1 [Example 321] | 25 | 67 | – |
| CC(C)CN1CCC(Nc2cc(C(F)(F)F)ccc2C(=O)Nc2ccc3c(c2)NC(=O)C3(C)C)CC1 [Example 327] | 3.7 | – | – |
| CCCCN1CCC(Nc2cc(C(F)(F)F)ccc2C(=O)Nc2ccc3c(c2)NC(=O)C3(C)C)CC1 [Example 335] | 87 | 49 | – |
| O=C(Nc1ccc2cccnc2c1)c1ccc(C(F)(F)F)cc1N[C@H]1CCCC[C@H]1N1CCCC1 [Example 367] | 15 | – | – |
| CN1C(=O)CCc2ccc(NC(=O)c3cc(Cl)cnc3NCC3CC3)cc21 [Example 400] | 60 | – | – |

Further lines, with some results ahead:

| IC50 [2] [nM] | Compound | inhibition rate of paw-licking behavior expressing time [1] [%] | also measured |
| --- | --- | --- | --- |
| 12 | CN1C(=O)CCc2ccc(NC(=O)c3ccc(Cl)cc3NC3CCCC3)cc21.Cl [Example 1, 4-chloro-2-(cyclopentylamino)-N-(1-methyl-2-oxo-1,2,3,4-tetrahydroquinolin-7-yl)benzamide hydrochloride] | 45 | – |
| 5.8 | CCC(CC)Nc1cc(Cl)ccc1C(=O)Nc1ccc2c(c1)N(C)C(=O)CC2 [Example 17] | 54 | – |
| 52 | C[C@H]1Oc2ccc(NC(=O)c3ccc(Cl)cc3N[C@@H]3CCCC[C@@H]3N3CCCC3)cc2NC1=O [Example 106, 4-chloro-N-[(2R)-2-methyl-3-oxo-3,4-dihydro-2H-benzoxazin-6-yl]-2-{[(1R,2S)-2-pyrrolidin-1-ylcyclohexyl]amino}benzamide hydrochloride] | – | – |
| 13 | Cl.O=C1Cc2c(cc(NC(=O)c3ccc(C(F)(F)F)cc3N[C@H]3CCCC[C@@H]3N3CCCC3)cc2C(F)(F)F)N1 [Example 107, N-[2-oxo-4-(trifluoromethyl)-2,3-dihydro-1H-indol-6-yl]-2-{[(1S,2S)-2-pyrrolidin-1-ylcyclohexyl]amino}-4-(trifluoromethyl)benzamide hydrochloride] | 53 | IC50 [3]: 8.8 nM; pain threshold for mechanical stimulus of the operation side leg (VFH test) [4]: completely restored the threshold value of the operation side leg to the threshold value range of the non-operation side leg |
| 19 | Cc1nc2cc(NC(=O)c3ccc(C(F)(F)F)cc3N[C@H]3CCCC[C@@H]3N(C)C)ccc2s1 [Example 108, 2-{[(1S,2S)-2-(dimethylamino)cyclohexyl]amino}-N-(2-methyl-1,3-benzothiazol-5-yl)-4-(trifluoromethyl)benzamide hydrochloride] | – | – |
| 2.6 | CN1C(=O)CCc2ccc(NC(=O)c3ccc(C(F)(F)F)cc3N[C@H]3CCCC[C@@H]3N3CCC(C)(C)C3)cc21 [Example 170] | – | – |
| 9.8 | COCCNc1cc(C(F)(F)F)ccc1C(=O)Nc1ccc2sc(C)nc2c1 [Example 307] | – | – |
| 23 | CCCCCN1CC[C@H](Nc2cc(C(F)(F)F)ccc2C(=O)Nc2ccc3c(c2)NC(=O)C3(C)C)C1 [Example 334] | 58 | – |
| 18 | O=C(Nc1ccc2cccnc2c1)c1ccc(C(F)(F)F)cc1N[C@H]1CCCC[C@@H]1N1CCCC1 [Example 386] | – | – |
